Reference: patent US9365583B2, “Substituted pyrazoles and uses thereof” (Genentech, Inc., priority 2013, dated 2016)

target: T1, N-terminally GST-tagged DLK (catalytic domain amino acid 1-520) (Homo sapiens, UniProt Q12852); experiment: DLK TR-FRET inhibition assay; format: biochemical; settings: 5 nM GST-DLK, 40 nM HIS-MKK4 K131M substrate, 30 μM ATP, 60 minutes at ambient temperature
T1 construct: N-terminally GST-tagged DLK (catalytic domain amino acid 1-520); purchased Carna Bioscience
T1 sequence (Q12852 1-520): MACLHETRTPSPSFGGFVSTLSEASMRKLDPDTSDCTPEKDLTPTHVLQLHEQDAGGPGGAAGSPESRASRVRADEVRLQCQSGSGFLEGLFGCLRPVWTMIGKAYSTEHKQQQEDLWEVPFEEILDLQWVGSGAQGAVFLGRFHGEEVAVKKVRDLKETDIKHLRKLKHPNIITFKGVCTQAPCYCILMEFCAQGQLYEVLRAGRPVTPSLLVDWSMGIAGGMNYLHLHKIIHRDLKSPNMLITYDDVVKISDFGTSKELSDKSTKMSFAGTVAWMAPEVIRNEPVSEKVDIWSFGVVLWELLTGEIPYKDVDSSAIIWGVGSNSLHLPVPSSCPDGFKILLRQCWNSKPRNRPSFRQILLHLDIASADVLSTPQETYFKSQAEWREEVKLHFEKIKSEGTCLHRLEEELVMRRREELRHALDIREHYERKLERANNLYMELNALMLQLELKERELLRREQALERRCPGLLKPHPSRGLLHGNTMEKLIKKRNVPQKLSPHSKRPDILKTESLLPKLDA
In short: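 Phosphorylated MKK4 was quantified by TR-FRET (Eu-labelled anti-phospho-MKK4, D2 anti-HIS; 3 h, 665 and 615 nm emission) after EDTA quench. Reactions held 5 nM GST-tagged DLK catalytic domain (1-520), 40 nM HIS-MKK4 K131M substrate, 30 μM ATP and compound (3-fold series from 20 uM), 60 min, room temperature, pH 7.5.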

Compound | Ki
CC(C)n1nc(-c2cnc(N)c(OC(F)F)c2)cc1[C@H]1[C@@H]2C[C@H](N3CC4(CN(C)CCO4)C3)C[C@@H]21 [compound 228, 3-(difluoromethoxy)-5-(1-isopropyl-5-((1R,3r,5S,6r)-3-(8-methyl-5-oxa-2,8-diazaspiro[3.5]nonan-2-yl)bicyclo[3.1.0]hexan-6-yl)-1H-pyrazol-3-yl)pyridin-2-amine] | 2.8 nM
CC(C)n1nc(-c2cnc(N)c(C(F)(F)F)c2)cc1[C@H]1[C@@H]2CC3(C[C@@H]21)CN(C)C(=O)CO3 (stereo partly drawn) [compound 229, (1R,5S,6r)-6-(3-(6-amino-5-(tri-fluoromethyl)pyridin-3-yl)-1-isopropyl-1H-pyrazol-5-yl)-4′-methylspiro[bicyclo[3.1.0]hexane-3,2′-morpholin]-5′-one] | 3.9 nM
CC(C)n1nc(-c2cnc(N)c(OC(F)F)c2)cc1[C@H]1[C@@H]2C[C@H](OC3COC3)C[C@@H]21 [compound 230, 3-(difluoromethoxy)-5-(1-iso-oprpyl-5-((1R,3r,5S,6r)-3-(oxetan-3-yloxy)bicyclo[3.1.0]hexan-6-yl)-1H-pyrazol-3-yl)pyridin-2-amine] | 3.4 nM
CC(C)n1nc(-c2cnc(N)c(OC(F)F)c2)cc1[C@H]1[C@@H]2C[C@@H](OC3COC3)C[C@@H]21 [compound 231, 3-(difluoromethoxy)-5-(1-iso-propyl-5-((1R,3s,5S,6r)-3-(oxetan-3-yloxy)bicyclo[3.1.0]hexan-6-yl)-1H-pyrazol-3-yl)pyridin-2-amine] | 5.5 nM
Nc1ncc(-c2cc([C@H]3[C@@H]4C[C@@H](N5CCCOCC5)C[C@@H]43)n(CC(F)F)n2)cc1OC(F)F [compound 232, 5-(5-((1R,3s,5S,6r)-3-(1,4-oxazepan-4-yl)bicyclo[3.1.0]hexan-6-yl)-1-(2,2-difluoroethyl)-1H-pyrazol-3-yl)-3-(difluoromethoxy) pyridin-2-amine] | 1.1 nM
Nc1ncc(-c2cc([C@H]3[C@@H]4C[C@H](N5CCCOCC5)C[C@@H]43)n(CC(F)F)n2)cc1OC(F)F [compound 233, 5-(5-((1R,3r,5S,6r)-3-(1,4-oxazepan-4-yl)bicyclo[3.1.0]hexan-6-yl)-1-(2,2-difluoroethyl)-1H-pyrazol-3-yl)-3-(difluoromethoxy) pyridin-2-amine] | 1.8 nM
CC(C)n1nc(-c2cnc(N)c(C(F)(F)F)c2)cc1[C@H]1[C@@H]2C[C@H](N3CCN[C@@H](C)C3)C[C@@H]21 [compound 234, 5-(1-isopropyl-5-((1R,3r,5S,6S)-3-((S)-3-methylpiperazin-1-yl)bicyclo[3.1.0]hexan-6-yl)-1H-pyrazol-3-yl)-3-(trifluoromethyl) pyridin-2-amine] | 4.9 nM
CC(C)n1nc(-c2cnc(N)c(C(F)(F)F)c2)cc1[C@H]1[C@@H]2C[C@@H](N3CCN[C@@H](C)C3)C[C@@H]21 [compound 235, 5-(1-isopropyl-5-((1R,3s,5S,6S)-3-((S)-3-methylpiperazin-1-yl)bicyclo[3.1.0]hexan-6-yl)-1H-pyrazol-3-yl)-3-(trifluoromethyl) pyridin-2-amine] | 3.8 nM
CC(C)n1nc(-c2cnc(N)c(OC(F)F)c2)cc1[C@H]1[C@@H]2C[C@@H](Cl)C[C@@H]21 [compound 236, 5-(5-((1R,3s,5S,6r)-3-chlorobicyclo [3.1.0]hexan-6-yl)-1-isopropyl-1H-pyrazol-3-yl)-3-(difluoro-methoxy)pyridin-2-amine] | 15.8 nM
CC(C)n1nc(-c2cnc(N)c(OC(F)(F)F)c2)cc1[C@H]1[C@@H]2C[C@@H](N3CCN(C)C[C@@H]3C)C[C@@H]21 [compound 237, 5-(5-((1R,3s,5S,6S)-3-((S)-2,4-dimethylpiperazin-1-yl)bicyclo [3.1.0]hexan-6-yl)-1-isopropyl-1H-pyrazol-3-yl)-3-(trifluoro-methoxy)pyridin-2-amine] | 1.1 nM
